# Results from patent publication US4751295A, “Cephalosporin derivatives” (Bristol-Myers Company, priority 1986, dated 1988).
# Counter-ions that a name gives are not always drawn. Like-named read-outs stand apart in the source and are kept apart here.
# Legend:
# [1] = test system: Penicillinsensitive S. aureus (5 strains); assay: MIC, two-fold serial agar dilution, group (G+)-Ia; format: cell-based; conditions: for MIC: Staphylococcus aureus, read-out: Geometric Mean of MIC, (G+)-Ia
# Protocol: (§1) In the primary evaluation of the compounds of this invention, the Minimum Inhibitory Concentrations (MIC's) of the compounds were determined by the two-fold serial agar dilution method in Mueller-Hinton agar against 32 strains of test organisms in six groups.
# (G+)Ia: Penicillinsensitive S. aureus (5 strains)
# [2] = test system: Penicillinresistant S. aureus (5 strains); assay: MIC, two-fold serial agar dilution, group (G+)-Ib; format: cell-based; conditions: Mueller-Hinton agar, 5 strains; for MIC: Staphylococcus aureus, read-out: Geometric Mean of MIC, (G+)-Ib
# Protocol: as §1
# (G+)Ib: Penicillinresistant S. aureus (5 strains)
# [3] = test system: Cephalothinsensitive E. coli (2 strains), Kl. pneumoniae (1 strain) and Pr. mirabilis (2 strains); assay: MIC, two-fold serial agar dilution, group (G-)-Ia; format: cell-based; conditions: 5 strains
# Protocol: as §1
# (G+)Ia: Cephalothinsensitive E. coli (2 strains), Kl. pneumoniae (1
# strain) and Pr. mirabilis (2 strains)
# [4] = test system: Cephalothinresistant E. coli (3 strains) and Kl. pneumoniae (2 strains); assay: MIC, two-fold serial agar dilution, group (G-)-Ib; format: cell-based; conditions: 5 strains; for MIC: Escherichia coli, read-out: Geometric Mean of MIC, (G-)-Ib, Mueller-Hinton agar; for Geometric Mean of MIC, (G-)-Ib: Mueller-Hinton agar
# Protocol: as §1
# (G-)Ib: Cephalothinresistant E. coli (3 strains) and Kl. pneumoniae (2
# [5] = test system: M. morganii (1 strain), Ent. cloacae (2 strains) and Ser. marcescens (2 strains); assay: MIC, two-fold serial agar dilution, group (G-)-II; format: cell-based; conditions: Mueller-Hinton agar, 5 strains; for MIC: read-out: Geometric Mean of MIC, (G-)-II
# Protocol: as §1
# (G-)II: M. morganii (1 strain), Ent. cloacae (2 strains) and Ser.
# [6] = test system: Ps. aeruginosa (7 strains); assay: MIC, two-fold serial agar dilution, group (G-)-III; format: cell-based; conditions: Mueller-Hinton agar; for MIC: Pseudomonas aeruginosa, read-out: Geometric Mean of MIC, (G-)-III
# Protocol: as §1
# (G-)III: Ps. aeruginosa (7 strains)
# [7] = blood levels upon intramuscular administration to mice; format: in vivo; conditions: mouse, im, 20 mg/kg
# Protocol: Table 2, below, gives the Protective Dose50 (PD50) in mice for a number of the compounds of Formula I against selected microorganisms. Table 3 gives blood levels of various compounds of Formula I upon intramuscular administration of the test compounds to mice at a dosage of 20 mg/kg.
# [8] = Mueller-Hinton agar, read-out: Geometric Mean of MIC, (G-)-Ia
SMILES,"MIC ([1]; Mueller-Hinton agar, 5 strains)",MIC [2],"MIC [3, 8]",MIC [4],MIC [5],MIC [6],further results
"CON=C(C(=O)NC1C(=O)N2C(C(=O)[O-])=C(/C=C/C[n+]3ccc(SCC(=O)O)cc3)CSC12)c1nsc(N)n1 (stereo not drawn) [Compound I-1Q, 7-[2-(5-Amino-1,2,4-thiadiazol-3-yl)-2-methoxyiminoacetamido]-3-[3-(4-carboxymethylthiopyridinio)-1-propenyl]-3-cephem-4-carboxylate]",0.7 µg/mL,0.92 µg/mL,0.0095 µg/mL,0.044 µg/mL,0.23 µg/mL,14 µg/mL,–
"CON=C(C(=O)NC1C(=O)N2C(C(=O)[O-])=C(C=CC[N+]3(C)CCCC3)CSC12)c1nsc(N)n1 (stereo not drawn) [I-1A E/Z = 7/1, 7-[2-(5-Amino-1,2,4-thiadiazol-3-yl)-2-methoxyiminoacetamido]-3-[3-(1-methylpyrrolidinio)-1-propenyl]-3-cephem-4-carboxylate sulfate]",–,–,–,–,–,–,"Geometric Mean of MIC, (G+)-Ia ([1]; Mueller-Hinton agar, 5 strains, sulfate): 0.13 µg/mL; Geometric Mean of MIC, (G+)-Ib ([2]; sulfate): 0.35 µg/mL; Geometric Mean of MIC, (G-)-Ia ([3]; Mueller-Hinton agar, sulfate): 0.029 µg/mL; Geometric Mean of MIC, (G-)-Ib ([4]; sulfate): 0.05 µg/mL; Geometric Mean of MIC, (G-)-II ([5]; sulfate): 0.17 µg/mL; Geometric Mean of MIC, (G-)-III ([6]; sulfate): 1.4 µg/mL"
"CON=C(C(=O)NC1C(=O)N2C(C(=O)[O-])=C(C=CC[N+]3(C)CCCC3)CSC12)c1nsc(N)n1 (stereo not drawn) [I-1A E/Z = 1/1, 7-[2-(5-Amino-1,2,4-thiadiazol-3-yl)-2-methoxyiminoacetamido]-3-[3-(1-methylpyrrolidinio)-1-propen-1-yl]-3-cephem-4-carboxylate]",0.26 µg/mL,0.7 µg/mL,0.05 µg/mL,–,0.23 µg/mL,2.4 µg/mL,"Geometric Mean of MIC, (G-)-Ib [4]: 0.15 µg/mL"
"CON=C(C(=O)NC1C(=O)N2C(C(=O)[O-])=C(C=CC[N+](C)(C)C)CS[C@H]12)c1nsc(N)n1 (stereo partly drawn) [Compound I-1D, 7-[2-(5-Amino-1,2,4-thiadiazol-3-yl)-2-methoxyiminoacetamido]-3-(3-trimethylammonio-1-propen-1-yl)-3-cephem-4-carboxylate]",–,–,–,–,–,–,AUC [7]: 11000 ng·h/mL; Cmax [7]: 20000 ng/mL; half-life [7]: 19 min
"CCON=C(C(=O)NC1C(=O)N2C(C(=O)[O-])=C(/C=C/C[n+]3ccc(C(N)=O)cc3)CSC12)c1nsc(N)n1 (stereo not drawn) [Compound I-2H, 7-[2-(5-Amino-1,2,4-thiadiazol-3-yl)-2-ethoxyiminoacetamido]-3-[3-(4-carbamoylpyridinio)-1-propen-1-yl]-3-cephem-4-carboxylate]",–,0.4 µg/mL,0.014 µg/mL,0.057 µg/mL,0.15 µg/mL,1.4 µg/mL,MIC [1]: 0.2 µg/mL
"CON=C(C(=O)NC1C(=O)N2C(C(=O)[O-])=C(/C=C/C[n+]3cccc(CN)c3)CSC12)c1nsc(N)n1 (stereo not drawn) [Compound I-1I, 7-[2-(5-Amino-1,2,4-thiadiazol-3-yl)-2-methoxyiminoacetamido]-3-[3-(3-aminomethylpyridinio)-1-propen-1-yl]-3-cephem-4-carboxylate]",0.8 µg/mL,1.6 µg/mL,0.1 µg/mL,0.2 µg/mL,0.69 µg/mL,3.1 µg/mL,–
"CON=C(C(=O)NC1C(=O)N2C(C(=O)[O-])=C(/C=C/C[n+]3ccccc3)CSC12)c1nsc(N)n1 (stereo not drawn) [I-1B E, 7-[2-(5-Amino-1,2,4-thiadiazol-3-yl)-2-methoxyiminoacetamido]-3-[3-pyridinio-1-propen-1-yl]-3-cephem-4-carboxylate]",–,0.4 µg/mL,0.016 µg/mL,0.044 µg/mL,0.11 µg/mL,1.6 µg/mL,MIC [1]: 0.2 µg/mL
"CON=C(C(=O)NC1C(=O)N2C(C(=O)[O-])=C(/C=C/C[n+]3cccc(NC=O)c3)CSC12)c1nsc(N)n1 (stereo not drawn) [Compound I-1F, 7-[2-(5-Amino-1,2,4-thiadiazol-3-yl)-2-methoxyiminoacetamido]-3-[3-(3-formylaminopyridinio)-1-propen-1-yl]-3-cephem-4-carboxylate]",0.15 µg/mL,0.4 µg/mL,0.0094 µg/mL,0.033 µg/mL,0.099 µg/mL,1.2 µg/mL,–
"CON=C(C(=O)NC1C(=O)N2C(C(=O)[O-])=C(C=CC[N+](C)(C)C)CS[C@H]12)c1nsc(N)n1 (stereo partly drawn) [I-1D E/Z = 10/1, 7-[2-(5-Amino-1,2,4-thiadiazol-3-yl)-2-methoxyiminoacetamido]-3-[3-trimethylammonio-1-propenyl]-3-cephem-4-carboxylate]",–,–,–,–,–,–,"Geometric Mean of MIC, (G+)-Ia ([1]; Mueller-Hinton agar, 5 strains): 0.30 µg/mL; Geometric Mean of MIC, (G+)-Ib [2]: 0.53 µg/mL; Geometric Mean of MIC, (G-)-Ia ([3]; Mueller-Hinton agar): 0.05 µg/mL; Geometric Mean of MIC, (G-)-Ib [4]: 0.076 µg/mL; Geometric Mean of MIC, (G-)-II [5]: 0.26 µg/mL; Geometric Mean of MIC, (G-)-III [6]: 1.3 µg/mL"
"CCO/N=C(\C(=O)NC1C(=O)N2C(C(=O)[O-])=C(/C=C/C[n+]3ccc(C(=O)O)cc3)CSC12)c1nsc(N)n1 (stereo not drawn) [I-2N E, 7-[2-(5-Amino-1,2,4-thiadiazol-3-yl)-2-(Z)-ethoxyiminoacetamido]-3-[3-(4-carboxypyridinio)-1-propenyl]-3-cephem-4-carboxylate]",1.2 µg/mL,2.1 µg/mL,0.016 µg/mL,0.11 µg/mL,0.35 µg/mL,4.7 µg/mL,–
"CON=C(C(=O)NC1C(=O)N2C(C(=O)[O-])=C(C=CC[n+]3ccccc3)CSC12)c1nsc(N)n1 (stereo not drawn) [I-IB E/Z = 1/4, 7-[2-(5-Amino-1,2,4-thiadiazol-3-yl)-2-methoxyiminoacetamido]-3-[3-pyridinio-1-propen-1-yl]-3-cephem-4-carboxylate]",0.35 µg/mL,0.8 µg/mL,–,0.11 µg/mL,0.35 µg/mL,3.5 µg/mL,"MIC ([3]; read-out: Geometric Mean of MIC, (G-)-Ia, Mueller-Hinton agar): 0.05 µg/mL"
"CON=C(C(=O)NC1C(=O)N2C(C(=O)[O-])=C(C=CC[N+](C)(C)C)CS[C@H]12)c1nsc(N)n1 (stereo partly drawn) [I-1D E/Z = 1/1, 7-[2-(5-Amino-1,2,4-thiadiazol-3-yl)-2-methoxyiminoacetamido]-3-(3-trimethylammonio-1-propen-1-yl)-3-cephem-4-carboxylate]",–,–,0.1 µg/mL,–,0.46 µg/mL,2.4 µg/mL,"Geometric Mean of MIC, (G+)-Ia ([1]; Mueller-Hinton agar, 5 strains): 0.61 µg/mL; Geometric Mean of MIC, (G+)-Ib [2]: 1.4 µg/mL; Geometric Mean of MIC, (G-)-Ib [4]: 0.26 µg/mL"
"CON=C(C(=O)NC1C(=O)N2C(C(=O)[O-])=C(/C=C/C[n+]3cccc(CC(=O)O)c3)CSC12)c1nsc(N)n1 (stereo not drawn) [Compound I-1P, 7-[2-(5-Amino-1,2,4-thiadiazol-3-yl)-2-methoxyiminoacetamido]-3-[3-(3-carboxymethylpyridinio)-1-propenyl]-3-cephem-4-carboxylate]",0.8 µg/mL,1.6 µg/mL,0.013 µg/mL,0.087 µg/mL,0.34 µg/mL,14 µg/mL,–
"CON=C(C(=O)NC1C(=O)N2C(C(=O)[O-])=C(/C=C/C[n+]3cccc(N)c3)CSC12)c1nsc(N)n1 (stereo not drawn) [Compound I-1E, 7-[2-(5-Amino-1,2,4-thiadiazol-3-yl)-2-methoxyiminoacetamido]-3-[3-(3-aminopyridinio)-1-propen-1-yl]-3-cephem-4-carboxylate]",–,0.4 µg/mL,0.0094 µg/mL,0.029 µg/mL,0.1 µg/mL,1.4 µg/mL,MIC [1]: 0.2 µg/mL
"CCO/N=C(\C(=O)NC1C(=O)N2C(C(=O)[O-])=C(/C=C\C[n+]3ccc(C(=O)O)cc3)CSC12)c1nsc(N)n1 (stereo not drawn) [I-2N Z, 7-[2-(5-Amino-1,2,4-thiadiazol-3-yl)-2-(Z)-ethoxyiminoacetamido]-3-[3-(4-carboxypyridinio)-1-propenyl]-3-cephem-4-carboxylate]",1.4 µg/mL,3.1 µg/mL,0.044 µg/mL,0.15 µg/mL,0.69 µg/mL,10 µg/mL,–
